Measurements published in the NIST ThermoML archive (doi:10.1021/je060271a).

Details: Liquid, Vibrating tube method

CCCCCCCC(=O)OCC(COC(=O)CCCCCCC)(COC(=O)CCCCCCC)COC(=O)CCCCCCC [pentaerythritol tetraoctanoate]
Details | mass density [kg/m3]
323.15 K, 31267 kPa | 960.2
323.15 K, 31296 kPa | 960.3
323.15 K, 31325 kPa | 960.2
323.15 K, 31360 kPa | 960.3
323.15 K, 31389 kPa | 960.2
323.15 K, 31418 kPa | 960.1
323.15 K, 31452 kPa | 960.2
323.15 K, 31481 kPa | 960.3
323.15 K, 31510 kPa | 960.4
323.15 K, 31540 kPa | 960.4
323.15 K, 31575 kPa | 960.3
323.15 K, 31604 kPa | 960.4
323.15 K, 31640 kPa | 960.3
323.15 K, 31669 kPa | 960.4
323.15 K, 31699 kPa | 960.3
323.15 K, 31731 kPa | 960.4
323.15 K, 31761 kPa | 960.4
323.15 K, 31785 kPa | 960.4
323.15 K, 31827 kPa | 960.5
323.15 K, 31856 kPa | 960.5
323.15 K, 31892 kPa | 960.5
323.15 K, 31922 kPa | 960.5
323.15 K, 31952 kPa | 960.6
323.15 K, 31987 kPa | 960.6
323.15 K, 32018 kPa | 960.7
323.15 K, 32048 kPa | 960.5
323.15 K, 32084 kPa | 960.6
323.15 K, 32115 kPa | 960.6
323.15 K, 32147 kPa | 960.7
323.15 K, 32178 kPa | 960.7
323.15 K, 32208 kPa | 960.8
323.15 K, 32244 kPa | 960.7
323.15 K, 32275 kPa | 960.8
323.15 K, 32305 kPa | 960.6
323.15 K, 32343 kPa | 960.8
323.15 K, 32374 kPa | 960.8
323.15 K, 32404 kPa | 960.6
323.15 K, 32442 kPa | 960.8
323.15 K, 32467 kPa | 960.8
323.15 K, 32504 kPa | 961
323.15 K, 32542 kPa | 960.9
323.15 K, 32574 kPa | 960.9
323.15 K, 32605 kPa | 961
323.15 K, 32642 kPa | 960.9
323.15 K, 32706 kPa | 961
323.15 K, 32744 kPa | 961.1
323.15 K, 32776 kPa | 961.1
323.15 K, 32838 kPa | 961.1
323.15 K, 32877 kPa | 961.1
323.15 K, 32909 kPa | 961
323.15 K, 32941 kPa | 961.1
323.15 K, 32980 kPa | 961
323.15 K, 33012 kPa | 961.2
323.15 K, 33050 kPa | 961.1
323.15 K, 33083 kPa | 961.2
323.15 K, 33115 kPa | 961.2
323.15 K, 33147 kPa | 961.2
323.15 K, 33186 kPa | 961.2
323.15 K, 33219 kPa | 961.3
323.15 K, 33258 kPa | 961.2
323.15 K, 33291 kPa | 961.3
323.15 K, 33324 kPa | 961.3
323.15 K, 33363 kPa | 961.4
323.15 K, 33396 kPa | 961.5
323.15 K, 33429 kPa | 961.3
323.15 K, 33470 kPa | 961.4
323.15 K, 33503 kPa | 961.3
323.15 K, 33536 kPa | 961.6
323.15 K, 33576 kPa | 961.4
323.15 K, 33610 kPa | 961.5
323.15 K, 33644 kPa | 961.5
323.15 K, 33685 kPa | 961.5
323.15 K, 33720 kPa | 961.6
323.15 K, 33755 kPa | 961.5
323.15 K, 33797 kPa | 961.6
323.15 K, 33833 kPa | 961.5
323.15 K, 33870 kPa | 961.6
323.15 K, 33916 kPa | 961.7
323.15 K, 33952 kPa | 961.7
323.15 K, 33982 kPa | 961.7
323.15 K, 34010 kPa | 961.8
323.15 K, 34034 kPa | 961.7
323.15 K, 34058 kPa | 961.7
323.15 K, 34086 kPa | 961.7
323.15 K, 34110 kPa | 961.8
323.15 K, 34134 kPa | 961.8
323.15 K, 34159 kPa | 961.8
323.15 K, 34188 kPa | 961.9
323.15 K, 34213 kPa | 961.9
323.15 K, 34242 kPa | 961.8
323.15 K, 34268 kPa | 961.9
323.15 K, 34294 kPa | 961.8
323.15 K, 34321 kPa | 962.1
323.15 K, 34354 kPa | 962
323.15 K, 34382 kPa | 961.9
323.15 K, 34411 kPa | 962
323.15 K, 34448 kPa | 962.1
323.15 K, 34472 kPa | 961.9
323.15 K, 34473 kPa | 962
323.15 K, 34474 kPa | 962
323.16 K, 603.67 kPa | 941
323.16 K, 875.73 kPa | 941.2
323.16 K, 892.76 kPa | 941.2
323.16 K, 910.31 kPa | 941.3
323.16 K, 929.42 kPa | 941.3
323.16 K, 952.34 kPa | 941.3
323.16 K, 1561.9 kPa | 941.8
323.16 K, 1605.8 kPa | 941.7
323.16 K, 1638 kPa | 941.7
323.16 K, 1659.1 kPa | 941.7
323.16 K, 1674.9 kPa | 941.8
323.16 K, 1688.1 kPa | 941.8
323.16 K, 2395.8 kPa | 942.3
323.16 K, 2562.1 kPa | 942.5
323.16 K, 2571.5 kPa | 942.4
323.16 K, 2579.5 kPa | 942.4
323.16 K, 2587.6 kPa | 942.5
323.16 K, 3525.4 kPa | 943
323.16 K, 3596.1 kPa | 943.1
323.16 K, 3609.1 kPa | 943.2
323.16 K, 3622.8 kPa | 943.1
323.16 K, 3638.9 kPa | 943.2
323.16 K, 3652.2 kPa | 943.2
323.16 K, 3663.5 kPa | 943.2
323.16 K, 3682.5 kPa | 943.1
323.16 K, 3696.6 kPa | 943.1
323.16 K, 3864.6 kPa | 943.3
323.16 K, 3879.5 kPa | 943.3
323.16 K, 3913.1 kPa | 943.3
323.16 K, 3928.7 kPa | 943.4
323.16 K, 3945.2 kPa | 943.3
323.16 K, 3960.6 kPa | 943.3
323.16 K, 3976.2 kPa | 943.4
323.16 K, 3991.8 kPa | 943.3
323.16 K, 4010.5 kPa | 943.3
323.16 K, 4025.5 kPa | 943.3
323.16 K, 4044.2 kPa | 943.5
323.16 K, 4061 kPa | 943.5
323.16 K, 4225.4 kPa | 943.5
323.16 K, 4242.4 kPa | 943.6
323.16 K, 4245.7 kPa | 943.5
323.16 K, 4456.7 kPa | 943.7
323.16 K, 4480.6 kPa | 943.7
323.16 K, 4501.4 kPa | 943.6
323.16 K, 4587.3 kPa | 943.7
323.16 K, 4633.2 kPa | 943.7
323.16 K, 4694.8 kPa | 943.8
323.16 K, 4742.6 kPa | 943.9
